Results from ChEMBL document CHEMBL5661955, “ASAP - In vitro cytotoxicity” (2024).
Where “and” joins values, the source holds several entries; their conditions need not be identical. Identical values can stand only once.

What was measured:
[1] = Functional assay to measure dose dependent changes in cell viability from drug treatment in Vero E6 miRFP670 cells (cotreated with P-gp inhibitor, CP100356) that are infected with Dengue virus type 2 New Guinea C. […] Cytotoxicity is reported via via analysis of DAPI count using high-content imager. The assay has been performed by KU Leuven.; format: toxicity, cell-based, Vero C1008; conditions: chlorocebus sabaeus, p-gp concentration 500 nM
[2] = Functional metabolic assay to measure dose dependent changes in cell viability from drug treatment in Vero E6/TMPRSS2 cells (cotreated with P-gp inhibitor, Elacridar). […] Cytotoxicity is reported via measuring absorbance and analysis of MTT/MTS assays in uninfected cells. The assay has been performed by Icahn School of Medicine at Mount Sinai.; format: toxicity, cell-based, VeroE6/TMPRSS2; conditions: chlorocebus sabaeus, p-gp concentration 2 uM; for CC50: Vero E6/TMPRSS2 cells, with Elacridar (P-gp inhibitor, concentration not stated); for CC10: veroe6/tmprss2
[3] = Functional CPE-based assay to measure dose dependent changes in cell viability from drug treatment in Vero E6 miRFP670 cells (cotreated with P-gp inhibitor, CP100356). Cells are treated with antiviral candidates that have been serially diluted. Cytotoxicity is reported via analysis of MTS assays in uninfected cells. The assay has been performed by KU Leuven.; format: toxicity, Vero C1008; conditions: chlorocebus sabaeus, p-gp concentration 500 nM
[4] = Vero E6 miRFP670 cells, with CP100356 (P-gp inhibitor, concentration not stated)
[5] = with CP100356 (P-gp inhibitor, concentration not stated)

SMILES | CC50 ([1]; vero c1008) | CC50 [2] | CC50 [3, 4] | CC50 ([3]; vero c1008) | CC50 [1, 5] | CC10 [2]
O=C(NCC(F)F)[C@H](Nc1ccc2c(c1)CNC2)c1cc(Cl)cc(C2CC2)c1 | > 50 µM and 21.1 µM and 27.1 µM | > 50 µM | > 50 µM | 46.9 µM and 47.6 µM | – | –
O=C(O)Cc1c[nH]c2cc(-c3cc(Cl)cc(NC(=O)OCc4ccccc4)c3)ccc12 | – | – | 32.1 µM | – | 18 µM | –
O=C(Nc1cc(Cl)cc(-c2cnn(Cc3ccc(C(=O)O)cc3)c2)c1)OCc1ccccc1 | – | – | 35.5 µM | – | 24 µM | –
FC(F)(F)Oc1cc(Cl)cc2c(Cc3ccc(-c4nnn[nH]4)cc3)c[nH]c12 | – | – | 30.6 µM | – | 11.1 µM | –
Clc1cc(CNc2ccc3c(c2)CNC3)c2cn[nH]c2c1 | – | – | 29.8 µM | – | 21.4 µM | –
O=C(Nc1ccc2c(c1)CNC2)c1cc(C(F)(F)F)cc2[nH]ccc12 | – | > 50 µM | > 50 µM | – | > 50 µM | > 50 µM
COC(=O)c1cc(Br)cc2c(Cc3ccc(-c4nnn[nH]4)cc3)c[nH]c12 | – | – | 36.9 µM | – | 9.83 µM | –
O=C(Nc1ccc2c(c1)CNC2)c1cc(Br)cc2[nH]ncc12 | – | > 50 µM | > 50 µM | – | > 50 µM | > 50 µM
Cc1c(C(=O)Nc2cc([C@H]3CCOC3)ccn2)cc(C2CC2)n1C | 29.2 µM | > 50 µM | – | 9.14 µM and > 50 µM | > 50 µM | > 50 µM
N[C@H]1Cc2ccc(NC(=O)c3cc(Cl)cc4[nH]ncc34)cc2C1 | – | > 50 µM | > 50 µM | – | > 50 µM | > 50 µM
CN(c1ccc2c(c1)CNC2)[C@H](C(=O)NCC(F)F)c1cc(Cl)cc(C2CC2)c1 | – | – | 9.32 µM | – | 14.3 µM | –
Cc1ncc(-c2cc(F)cc(C(=O)Nc3ccc4c(c3)CNC4)c2)o1 | – | – | 11.9 µM | – | 12.5 µM | –
O=C(Nc1cc2c(cc1Br)CNC2)c1cc(Cl)cc2[nH]ncc12 | – | – | 1.85 µM | – | 13.5 µM | –
O=C(Nc1ccc2c(c1)CNC2)c1cc(F)cc(-c2cn[nH]c2)c1 | – | – | > 50 µM | – | 37.2 µM | –
N#Cc1cccc(-c2nc3c(C(=O)Nc4ccc5c(c4)CNC5)cc(F)cc3[nH]2)c1 | – | – | 29.2 µM | – | 20.7 µM | –
O=C(Nc1cc2c(c(-c3c[nH]c(=O)c(F)c3)c1)CNC2)c1cc(F)cc2[nH]ncc12 | – | – | > 50 µM | – | > 50 µM | –
O=C(Nc1ccc2c(c1)CN[C@H]2C[C@H](O)CO)c1cc(F)cc2[nH]ncc12 | – | – | > 50 µM | – | 31.2 µM | –
O=C(NCCCn1ccnc1)[C@H](Nc1ccc2c(c1)CNC2)c1cc(Cl)cc(C2CC2)c1 | – | – | 11.5 µM | – | > 50 µM | –
O=C1Cc2c(cccc2C(=O)Nc2ccc3c(c2)CCNCC3)N1 | – | – | > 50 µM | – | > 50 µM | –
N#Cc1ccc(-c2nc3c(C(=O)Nc4ccc5c(c4)CNC5)cc(F)cc3[nH]2)cc1 | – | – | > 50 µM | – | > 50 µM | –
Cc1c(C(=O)Nc2cc(-c3cccnc3)ccn2)cc(C2CC2)n1C | 11.9 µM | > 50 µM | > 50 µM | 40.1 µM | 18.9 µM | 13.062 µM
COc1cccc(-c2nc3c(C(=O)Nc4ccc5c(c4)CNC5)cc(F)cc3[nH]2)c1 | – | – | 2.86 µM | – | 5.1 µM | –
CO[C@H]1C[C@H](n2ncc3c(C(=O)Nc4ccc5c(c4)CNC5)cc(Cl)cc32)C1 | – | – | 14 µM | – | 47.5 µM | –
O=C(Nc1ccc2c(c1)CNC2)c1cc(Cl)cc2[nH]c(-c3c[nH]c(=O)c(Br)c3)nc12 | – | – | > 50 µM | – | 14.3 µM | –
O=C(Nc1cnc2c(c1)CNC2)c1cc(F)cc2[nH]ncc12 | – | – | > 50 µM | – | > 50 µM | –

SMILES | CC50 ([1]; vero c1008) | CC50 [2] | CC50 [3, 4] | CC50 ([3]; vero c1008) | CC50 [1, 5] | CC10 [2]
O=C(NCC(F)F)[C@H](Nc1cc2c(cc1Br)CNC2)c1cc(Cl)cc(C2CC2)c1 | – | – | 5.82 µM | – | 6.39 µM | –
O=C(Nc1ccc2c(c1)CN[C@H]2CC1CC1)c1cc(F)cc2[nH]ncc12 | – | – | 11.8 µM | – | 18.7 µM | –
O=C1Nc2ccc(C(=O)Nc3ccc4c(c3)CNC4)cc2C1=O | – | – | > 50 µM | – | 25.7 µM | –
COc1ccccc1-c1nc2c(C(=O)Nc3ccc4c(c3)CNC4)cc(F)cc2[nH]1 | – | – | > 50 µM | – | 15.6 µM | –
CCCn1cc2c(C(=O)Nc3ccc4c(c3)CNC4)cc(Cl)cc2n1 | – | – | 17.4 µM | – | 21.5 µM | –
CC(C)(C)OC(=O)N1Cc2ccc(N[C@H](C(=O)O)c3cc(Cl)cc4[nH]ncc34)cc2C1 | – | – | > 50 µM | – | 28.9 µM | –
NCc1cccc(-c2csc3cc(C(=O)Nc4ccc5c(c4)CNC5)ccc23)c1 | – | – | 5.68 µM | – | 3.57 µM | –
O=C(Nc1ccc2c(c1)CNC2)c1cc(F)cc2[nH]c(-c3cccc(F)c3)nc12 | – | – | 3.69 µM | – | 2.47 µM | –
N#Cc1cc2c(cc1NC(=O)c1cc(F)cc3[nH]ncc13)CNC2 | – | – | > 50 µM | – | > 50 µM | –
O=C(Nc1ccc2c(c1)CNC2)c1cc(F)cc(-c2cccnc2)c1 | – | – | 15.4 µM | – | > 50 µM | –
Cc1cccc(-c2nc3c(C(=O)Nc4ccc5c(c4)CNC5)cc(F)cc3[nH]2)c1 | – | – | 2.76 µM | – | 0.838 µM | –
O=C(Nc1ccc2c(c1)CNC2)c1cccc2c1[C@]1(CCNC1)C(=O)N2 | – | – | > 50 µM | – | > 50 µM | –
Cc1ncc(-c2cc(F)cc(C(=O)Nc3ccc4c(c3)CNC4)c2)s1 | – | – | 23.1 µM | – | > 50 µM | –
O=C(NCC(F)F)[C@H](Nc1ccc2c(c1)CNC2)c1cc(F)cc2[nH]ncc12 | – | – | > 50 µM | – | > 50 µM | –
O=C(Nc1ccc2c(c1)CNC2)c1cc(F)cc(-c2c[nH]c(=O)c(F)c2)c1 | – | – | > 50 µM | – | 25.4 µM | –
N#CCc1cc(NC(=O)c2cc(F)cc3[nH]ncc23)cc2c1CNC2 | – | – | > 50 µM | – | > 50 µM | –
C=Cc1cc2c(cc1NC(=O)c1cc(F)cc3[nH]ncc13)CNC2 | – | – | > 50 µM | – | > 50 µM | –
O=C(Nc1ccc2c(c1)CNC2)c1ccc2c(C3=CCNCC3)csc2c1 | – | – | 47.1 µM | – | 18.8 µM | –
NCc1ccc(-c2csc3cc(C(=O)Nc4ccc5c(c4)CNC5)ccc23)cc1 | – | – | 31.9 µM | – | 4.14 µM | –
O=C(Nc1cc(Cl)cc(C(=O)Nc2ccc(-n3nn[nH]c3=O)cc2)c1)OCc1ccccc1 | – | – | > 50 µM | – | 31.8 µM | –
O=C(NCC(F)F)[C@H](Nc1cnc2c(c1)CNC2)c1cc(Cl)cc(C2CC2)c1 | – | – | > 50 µM | – | > 50 µM | –
O=C(Nc1cc2c(cc1C1CC1)CNC2)c1cc(F)cc2[nH]ncc12 | – | – | > 50 µM | – | 10.1 µM | –
Cc1ccc(-c2nc3c(C(=O)Nc4ccc5c(c4)CNC5)cc(F)cc3[nH]2)cc1 | – | – | 1.42 µM | – | 3 µM | –
NCc1csc2cc(C(=O)Nc3ccc4c(c3)CNC4)ccc12 | – | – | > 50 µM | – | 5.74 µM | –
O=C(Nc1ccc2c(c1)CNC2)c1cc(Cl)cc2c1cnn2C[C@H]1CCCO1 | – | – | 26.9 µM | – | 37.1 µM | –

SMILES | CC50 ([1]; vero c1008) | CC50 [2] | CC50 [3, 4] | CC50 ([3]; vero c1008) | CC50 [1, 5] | CC10 [2]
O=C(Nc1ccc2c(c1)CNC2)c1cc(Cl)cc2[nH]c(-c3cc(C4CC4)[nH]n3)nc12 | – | – | 1.51 µM | – | 1.27 µM | –
O=C(Nc1ccc2c(c1)CNC2)c1cccc2c(C3CNC3)n[nH]c12 | – | – | > 50 µM | – | > 50 µM | –
O=C(Nc1ccc2c(c1)CN[C@H]2CCO)c1cc(F)cc2[nH]ncc12 | – | – | > 50 µM | – | 42.5 µM | –
C=CC[C@H]1NCc2cc(NC(=O)c3cc(F)cc4c3CC(=O)N4)ccc21 | – | – | > 50 µM | – | > 50 µM | –
Cc1cnccc1-c1cc(NC(=O)c2cc(F)cc3[nH]ncc23)cc2c1CNC2 | – | – | > 50 µM | – | > 50 µM | –
O=C(Nc1ccc2c(c1)CNC2)c1cc(F)cc2[nH]c(-c3ccc(F)cc3)nc12 | – | – | 6.47 µM | – | 4.33 µM | –
O=C(Nc1ccc2c(c1)CNC2)c1cccc2nc(O)ccc12 | – | – | 36.5 µM | – | > 50 µM | –
Cc1cc(-c2cc(F)cc(C(=O)Nc3ccc4c(c3)CNC4)c2)[nH]n1 | – | – | > 50 µM | – | > 50 µM | –
O=C(Nc1ccc2c(c1)CNC2)c1cc(Br)cc2c1nc1n2CCCC1 | – | – | 0.847 µM | – | 1.27 µM | –
COc1cc(-c2cc(NC(=O)c3cc(F)cc4[nH]ncc34)cc3c2CNC3)ccn1 | – | – | > 50 µM | – | > 50 µM | –
C[C@H]1C(=O)Nc2ccc(C(=O)Nc3ccc4c(c3)CNC4)cc21 | – | – | > 50 µM | – | > 50 µM | –
CC(C)n1cc2c(C(=O)Nc3ccc4c(c3)CNC4)cc(Cl)cc2n1 | – | – | 11.8 µM | – | 22.7 µM | –
O=C1Cc2cc(C(=O)Nc3ccc4c(c3)CNC4)ccc2N1 | – | – | – | 8.74 µM and > 50 µM | > 50 µM | –
O=C(NCc1cccnc1)[C@H](Nc1ccc2c(c1)CNC2)c1cc(Cl)cc2[nH]ncc12 | – | – | 8.32 µM | – | > 50 µM | –
N#Cc1cccc(-c2nc3c(C(=O)Nc4ccc5c(c4)CNC5)cc(Cl)cc3[nH]2)c1 | – | – | 6.67 µM | – | > 50 µM | –
O=C(Nc1ccc2c(c1)CNC2)c1cccc2cn[nH]c12 | – | – | 47.8 µM | – | > 50 µM | –
O=C(Nc1ccc2c(c1)CNC2)c1cc(Cl)cc2ccccc12 | – | – | 10.1 µM | – | 25.1 µM | –
O=C(Nc1cc2c(c(C3=CCS(=O)(=O)CC3)c1)CNC2)c1cc(F)cc2[nH]ncc12 | – | – | > 50 µM | – | > 50 µM | –
O=C(Nc1cc2c(c(-c3ccnnc3)c1)CNC2)c1cc(Cl)cc2[nH]ncc12 | – | – | > 50 µM | – | 25.8 µM | –
O=C(Nc1ccc2c(c1)CNC2)c1cc(Cl)cc2c1cnn2C1CCC1 | – | – | 9.91 µM | – | 12.8 µM | –
O=C(Nc1ccc2c(c1)CNC2)c1cc(Cl)cc2c1NCCC2 | – | – | 6.83 µM | – | 24.8 µM | –
O=C(Nc1ccc2c(c1)CNC2)c1cc(Cl)cc(N2CCCC2)c1 | – | – | 5.83 µM | – | 13.2 µM | –
O=C(Nc1cc2c(c(C3=CCOCC3)c1)CNC2)c1cc(F)cc2[nH]ncc12 | – | – | > 50 µM | – | > 50 µM | –
N[C@H]1Cc2ccc(NC(=O)c3cccc4c3CC(=O)N4)cc2C1 | – | – | > 50 µM | – | > 50 µM | –
